# Source: patent publication US10947188B2, “Small molecule ferroptosis inducers” (THE TRUSTEES OF COLUMBIA UNIVERSITY IN THE CITY OF NEW YORK, priority 2016, dated 2021)
# Like-named read-outs stand apart in the source and are kept apart here.
# System: HT-1080
# Experiment: Modulatory profiling: Alamar Blue viability, lethal compound cotreated with death modulator (EC50, AUC); for AUC HT.BHA: reference of the scale not given here; for AUC HT.EGTA: reference of the scale not given here
# Format: cell-based
# Set-up: AUC, modulator HT.3MA / AUC, modulator HT.ALLN / AUC HT.ATA / AUC HT.ActD / AUC HT.BHA / AUC HT.BHT / AUC HT.BocD / AUC HT.CHX / AUC HT.Co2+ / AUC HT.DPQ / AUC HT.EGTA / AUC HT.Lmim / AUC HT.NAD+ / AUC HT.Nec-1 / AUC HT.SP600125 / AUC HT.TLCK / AUC HT.U0126: unit not given beside the values
# Settings: for AUC HT.ATA: HT-1080, modulator ATA; for AUC HT.ActD: HT-1080, modulator ActD; for AUC HT.BHA: HT-1080, modulator BHA; for AUC HT.BHT: HT-1080, modulator BHT; for AUC HT.BocD: HT-1080, modulator BocD; for AUC HT.CHX: HT-1080, modulator CHX; for AUC HT.Co2+: HT-1080, modulator Co2+; for AUC HT.CspA: HT-1080, modulator CspA; for AUC HT.DPQ: HT-1080, modulator DPQ; for AUC HT.Gd3+: HT-1080, modulator Gd3+; for AUC HT.LNAME: HT-1080, modulator LNAME; for AUC HT.Lmim: HT-1080, modulator Lmim; for AUC HT.NAD+: HT-1080, modulator NAD+; for AUC HT.NMMA: HT-1080, modulator NMMA; for HT.atoc (AUC) / HT.bCarotene (AUC) / HT.deferox (AUC) / HT.digoxin (AUC) / HT.trolox (AUC) / HT.zVAD (AUC) / EC50: HT-1080; for HT.atoc (AUC): modulator atoc; for HT.bCarotene (AUC): modulator bCarotene; for HT.deferox (AUC): modulator deferox; for HT.digoxin (AUC): modulator digoxin; for HT.trolox (AUC): modulator trolox; for HT.zVAD (AUC): modulator zVAD; for AUC, modulator HT.3MA / AUC, modulator HT.ALLN: HT-1080 cells, modulatory profile value (AUC); for AUC, modulator HT.3MA: lethal compound cotreated with modulator 3MA; for AUC, modulator HT.ALLN: lethal compound cotreated with modulator ALLN; for EC50: Homo sapiens, HT-1080, 48 h, 48 h
Structure (SMILES),AUC HT.ATA,AUC HT.ActD,AUC HT.BHA,AUC HT.BHT,AUC HT.BocD,AUC HT.CHX,AUC HT.Co2+,AUC HT.CspA,AUC HT.DPQ,AUC HT.Gd3+,AUC HT.LNAME,AUC HT.Lmim,AUC HT.NAD+,AUC HT.NMMA,HT.atoc (AUC),HT.bCarotene (AUC),HT.deferox (AUC),HT.digoxin (AUC),HT.trolox (AUC),HT.zVAD (AUC),other results
Cc1cccc(-n2ncc(Cl)c(Cl)c2=O)c1 [CIL22],0.05908,−0.02402,0.001925,−0.05238,0.008628,0.01938,−0.03478,−0.03611,−0.00934,−0.004534,0.04608,0.01659,0.01014,0.01444,0.04912,−0.01174,0.06507,0.05675,−0.004921,0.02835,"AUC HT.EGTA: −0.01254; AUC, modulator HT.3MA: −0.01606; AUC, modulator HT.ALLN: 0.02849"
COc1nn(-c2ccccc2)c(=O)c(Cl)c1Cl [CIL23],0.01792,0.01969,0.00702,−0.02762,−0.01259,0.08773,0.03316,−0.02326,0.01052,−0.000221,0.005628,0.01608,−0.0002222,−0.001084,0.03663,−0.001122,0.1512,0.03673,0.004402,0.02043,"AUC HT.EGTA (HT-1080, modulator EGTA): −0.01323; AUC, modulator HT.3MA: 0.01609; AUC, modulator HT.ALLN: 0.001521"
O=c1c(Cl)c(Cl)cnn1-c1ccc(Cl)c(C(F)(F)F)c1 [CIL25],0.06489,−0.03585,−0.01547,−0.1041,0.05183,−0.01604,−0.06128,0.01073,0.02629,0.01713,0.02663,0.01684,−0.03051,−0.006639,0.04405,0.009082,0.07763,−0.007149,−0.02562,0.03342,"AUC HT.EGTA (HT-1080, modulator EGTA): 0.01624; AUC, modulator HT.3MA: 0.01605; AUC, modulator HT.ALLN: −0.0257"
CC1CC2=C(CC1CNCCCN(C)C)C(C)(C)CCC2 (stereo not drawn) [CIL26],0.04192,−0.002488,−0.1441,−0.1215,0.008992,−0.02052,−0.02744,−0.04225,0.02987,−0.005334,0.001215,−0.004,−0.01406,−0.009692,0.04649,−0.03349,−0.1033,−0.03641,−0.0327,−0.01226,"AUC HT.EGTA (HT-1080, modulator EGTA): 0.009998; AUC, modulator HT.3MA: 0.0321; AUC, modulator HT.ALLN: 0.001592"
Cc1ccc(O)c(/N=C/C=C/c2cccc(Br)c2)c1 [CIL27],0.04845,0.03171,−0.0156,−0.05537,0.003288,0.04576,0.04606,−0.03639,0.02307,−0.0168,0.001204,−0.001055,−0.0034,−0.01331,0.04362,−0.01166,0.1441,0.001262,−0.05943,−0.01508,"AUC HT.EGTA (HT-1080, modulator EGTA): 0.02604; AUC, modulator HT.3MA: 0.0766; AUC, modulator HT.ALLN: 0.1636"
CC(C)=CCCC1=CCC(CNCCCN(C)C)C(C)C1 (stereo not drawn) [CIL28],0.06113,−0.01352,−0.1362,−0.1108,0.01462,0.0328,−0.03292,−0.01858,0.04404,−0.02583,−0.0045,0.001311,0.007089,−0.009763,0.1068,−0.03341,−0.04312,−0.007104,−0.03025,−0.009003,"AUC HT.EGTA (HT-1080, modulator EGTA): 0.005868; AUC, modulator HT.3MA: 0.0937; AUC, modulator HT.ALLN: 0.04719"
COC(C)(C)C#CC(=O)c1cccc2ccccc12 [CIL34],0.05661,−0.03224,0.01628,−0.1102,−0.007476,0.0461,0.09926,−0.02181,0.0333,−0.02283,−0.00517,−0.002139,−0.005535,−0.003031,0.08125,0.001321,0.1115,−0.01032,−0.02993,0.007148,"AUC HT.EGTA (HT-1080, modulator EGTA): −0.002035; AUC, modulator HT.3MA: 0.1255; AUC, modulator HT.ALLN: 0.1551"
CN(C)CCCOS(=O)(=O)c1ccc(N2CCC(c3ccc(Cl)cc3)=N2)cc1 [CIL40],0.06692,−0.06544,−0.09372,−0.1505,0.01176,−0.02863,0.04911,−0.04697,0.04908,−0.0186,−0.01999,0.0004825,−0.04749,−0.006901,0.1232,−0.01785,−0.08111,−0.03539,−0.02768,0.01717,"AUC HT.EGTA (HT-1080, modulator EGTA): −0.02642; AUC, modulator HT.3MA: 0.0807; AUC, modulator HT.ALLN: 0.1761"
N/C(=N\OC(=O)C12CC3CC(CC(C3)C1)C2)c1ccccc1 [CIL41],0.02643,−0.09343,0.1312,0.009338,−0.01678,−0.05459,0.06389,9.4409E−05,0.04282,−0.02592,−0.0121,0.1377,−0.008657,−0.01029,0.316,−0.02182,0.1795,−0.09255,0.161,−0.0167,"AUC HT.EGTA (HT-1080, modulator EGTA): 0.02946; effect of ferroptosis inhibitors (iron chelators and lipophilic antioxidants) on lethality in modulatory profiling (HT-1080 and BJeLR): suppression by canonical ferroptosis inhibitors; AUC, modulator HT.3MA: 0.04521; AUC, modulator HT.ALLN: 0.09324; EC50 (DMSO): 5.67 µM; EC50 (cotreated with MEK inh U0126): 20.9 µM; EC50 (cotreated with antioxidant Atoc): 50 µM; EC50 (cotreated with antioxidant BHA): 26 µM; EC50 (cotreated with antioxidant BHT): 12.6 µM; EC50 (cotreated with antioxidant Trolox): 23.4 µM; EC50 (cotreated with iron-chelator Deferoxamine): 124 µM; EC50 (cotreated with iron-chelator Lmim): 69.8 µM"
O=P(Oc1ccccc1)(Oc1ccccc1)O[C@@H]1C=CS(=O)(=O)C1 [CIL44],0.0592,0.01649,−0.02559,−0.1007,−0.0552,0.02874,−0.04658,−0.01586,−0.01669,−0.01147,−0.02505,−0.007614,−0.07144,−0.0419,0.04386,−0.02012,0.1041,0.01992,−0.02106,0.01751,"AUC HT.EGTA (HT-1080, modulator EGTA): −0.007267; AUC, modulator HT.3MA: 0.07356; AUC, modulator HT.ALLN: 0.1392"
CCc1ccc(/C=C2/SC(=O)N(CCC(C)NCCCN3CCOCC3)C2=O)cc1 (stereo not drawn) [CIL46],0.0162,−0.02916,−0.1015,−0.1471,−0.04371,−0.01909,−0.1082,0.0003356,−0.001692,−0.008617,−0.02805,−0.03166,−0.06754,0.001557,0.04736,−0.01026,0.03467,−0.04671,−0.0145,0.01724,"AUC HT.EGTA (HT-1080, modulator EGTA): −0.01699; AUC, modulator HT.3MA: 0.08624; AUC, modulator HT.ALLN: 0.03767"
CC1=CC(C)(C)Nc2ccc(OC(=O)c3cccnc3)cc21 [CIL47],0.07043,0.01588,−0.04478,−0.1469,−0.009617,0.007874,−0.2381,0.01761,−0.02038,−0.02263,−0.01288,−0.04173,−0.02784,−0.01195,0.04666,−0.001832,0.01074,0.03489,−0.03828,−0.005894,"AUC HT.EGTA (HT-1080, modulator EGTA): 0.001051; AUC, modulator HT.3MA: 0.07294; AUC, modulator HT.ALLN: 0.2227"
